In data set [1] the target is T1, 5-HT2A receptor (Homo sapiens, UniProt P28223). In words: 5-HT2A receptor internalization, NanoBit HiBit-fused 5-HT2A in HEK293T cells. It is filed as cell-based. Details: expressed in transfected cells; host or cells: HEK293T. The method, then:
To assess the ability of the “E559 polymorph” to induce β-arrestin-mediated 5-HT2A receptor internalization in vitro, the loss of surface expression of 5-HT2A receptor was measured using a NanoBit N-terminal HiBit-fused 5-HT2A construct cloned in HEK293T cells (1:15 ratio 5-HT2A: β-arrestin2). In brief, cells were treated with serial dilution of test compounds for 1 hour or a specified time point.
(In general: HiBiT is a short tag that completes a luciferase, so light tracks the accessible tagged protein.)

Data set [2] deals with T1, 5-HT2A receptor.
The subject of a further data set is mice. In words: Tolerance after repeated dosing, HTR to DOI challenge. The note with it: IP once daily 7 days: DOI 10 mg/kg/day, E559 polymorph 3 mg/kg/day; DOI 1 mg/kg challenge 24 hours later. Format: in vivo, mouse. The procedure: To determine if repeated dosing of the “E559 polymorph” can induce tolerance in vivo, HTR experiment described in Examples 2 and 5 was repeated where mice received IP injections of vehicle, DOI (10 mg/kg/day), or the “E559 polymorph” (3 mg/kg/day; once daily for 7 consecutive days) and were then challenged with DOI (1 mg/kg) 24 hours later. Data shown in FIG. 22 are group means±standard deviation for the entire 60 minutes test session. Asterisks indicate statistical significances compared to the Vehicle control (Vehicle was saline).

Data set [3] concerns the target T2, Serotonin 1B receptor (5-HT1BR) (Homo sapiens, UniProt P28222).
T2 construct: expressed in transfected cells; host or cells: HEK-293
Put plainly: Functional assay in HEK-293 cells (cAMP). The note with it: Functional Assay (agonist) EC50 (nM), cAMP; ligand 5-HT. It is filed as cell-based. The procedure:
(§1) Neuro-receptor binding and functional effects of the “E559 polymorph” was examined by analyzing binding affinity [Ki (nM)], functional agonist activity [EC50 (nM)], and functional antagonist activity [IC50 (nM)] against a panel of key receptors in neurophysiological disorders. Binding and functional assays were performed at “E559 polymorph” concentrations of 0.0003, 0.003, 0.01, 0.03, 0.1, 0.3, 1, and 10 μM. In binding assays, cell membrane homogenates, expressing each receptor target, were incubated with the corresponding radio-ligand in absence or presence of several concentration of the “E559 polymorph” compound. The measurement of binding affinity of the “E559 polymorph” is represented in TABLE XIII by Ki (nM) which was calculated as percent inhibition of the binding of a radioactively labeled reference ligand at each receptor. In functional assays the HEK-293 cells expressing each receptor target were suspended in buffer and distribute in microplates and incubated for 30 minutes at room temperature or 37° C. in the presence of buffer alone (basal control), the reference agonist or antagonist, or the “E559 polymorph. Following incubation, the cells were lysed and the appropriate fluorescent probe (Ca2+ flux, cAMP, or IP1) were added for 60 minutes to measure the fluorescence transfer at the appropriate wavelength using a microplate reader. The cellular agonist effect (EC50) was calculated as a percent of control response to a known reference agonist and the cellular antagonist effect (IC50) was calculated as a percent inhibition of control reference agonist response for each receptor.
(§2) The functional agonist activity [EC50 (nM), Emax], and functional antagonist activity [IC50 (nM)] of the 5R:8S stereoisomer of the “E559 polymorph” (5R:8S E558) was compared with the “E559 polymorph” (a 5R:8R stereoisomer) at selected serotonin receptors. The assays were performed as described in Example 6.

In a further data set the target is 5-HT6 (Homo sapiens, UniProt P50406). Put plainly: Functional assay (cAMP). It is filed as cell-based. Details: expressed in transfected cells; host or cells: HEK-293. The method, then:
as §1, §2

Data set [4] concerns the target T3, 5-HT2A receptor (5-HT2AR) (Homo sapiens, UniProt P28223).
T3 construct: expressed in transfected cells; host or cells: HEK-293
In words: Functional assay in HEK-293 cells (IP1). Format: cell-based. The method, then: as §1, §2

Data set [5] has as its target T4, Serotonin 2B receptor (5-HT2BR) (Homo sapiens, UniProt P41595).
T4 construct: expressed in transfected cells; host or cells: HEK-293
In words: Functional assay in HEK-293 cells (IP1). It is filed as cell-based. The procedure:
as §1, §2

A further data set concerns the target T5, 5-HT1E (Homo sapiens, UniProt P28566).
T5 construct: expressed in transfected cells; host or cells: HEK-293
Put plainly: Functional assay (Arrestin). Format: cell-based.

Another data set has as its target T6, 5-HT1F (Homo sapiens, UniProt P30939).
T6 construct: expressed in transfected cells; host or cells: HEK-293
T6 sequence (P30939 1-366): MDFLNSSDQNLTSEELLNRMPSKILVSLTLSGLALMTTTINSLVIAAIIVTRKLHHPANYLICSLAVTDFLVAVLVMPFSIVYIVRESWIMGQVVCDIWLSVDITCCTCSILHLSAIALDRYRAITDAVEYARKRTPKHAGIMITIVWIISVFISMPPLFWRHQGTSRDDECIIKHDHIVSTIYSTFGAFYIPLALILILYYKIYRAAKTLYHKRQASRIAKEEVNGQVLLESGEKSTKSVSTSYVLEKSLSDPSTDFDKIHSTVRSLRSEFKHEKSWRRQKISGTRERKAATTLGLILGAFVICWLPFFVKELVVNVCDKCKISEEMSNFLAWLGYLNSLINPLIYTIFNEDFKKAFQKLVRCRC
In words: Functional assay (cAMP). Format: cell-based. The procedure: as §1, §2

The next data set in a line: DVS hygroscopicity. Format: physicochemical. Particulars: for DVS (hold at 75% RH) mass increase: crude material, 75% relative humidity, ~5 hr run time.
The next data set relates to stress-naïve mice. Put plainly: FST and OFT with volinanserin pre-treatment. Format: in vivo, mouse. The procedure: The 5-HT2A receptor plays a key role in the function of many serotonergic psychedelics and their derivatives (Jaster et al., Psychopharmacology, 2022, 239, p1665-1677.). […] To further investigate the role of the 5-HT2A receptor in the “E559 polymorph” effects in these in vivo models, the open field test and forced swim test in mice was repeated as described in Example 14, with and without volinanserin, a selective 5-HT2A antagonist, treatment. Briefly, volnanserin (0.125 mg/kg) was administered (IP injection) 1 hour prior to the administration of the “E559 polymorph” (1 mg/kg, IP) to stress-naïve mice, and forced swim test was performed 24 hours later as described in Example 14. In brief, FIG. 26A represents immobility time in the forced swim test of female mice (n=12/group) pre-treated with vehicle or volinanserin, followed by either vehicle (saline) or “E559 polymorph” (1 mg/kg). […] FIG. 26C represents distance travelled in the open field Measured 24 hours after treatment (as in FIG. 26A) in female mice (n=12). […] Horizontal lines in FIG. 26 represent the mean±standard error of the mean (S.E.M.) and asterisks indicate statistical significances.

Data set [6] has as its system primary cortical neurons (rats). In words: In vitro dendritogenesis assay with volinanserin pre-treatment. It is filed as cell-based, rat. The procedure:
The 5-HT2A receptor plays a key role in the function of serotonergic psychedelics and their derivatives (Jaster, et al., Psychopharmacology, 2022, 239, p1665-1677.). […] The in vitro dendritogenesis assay was repeated in the presence or absence of a selective 5-HT2A antagonist volinanserin. In brief, FIG. 20A represents tracings of the cortical neurons (DIV 3) treated with volinanserin (Vol) at […]) followed by either vehicle or “E559 polymorph” (1 μM). Sholl radii are spaced 10 μm. […] FIG. 20C represents the total dendritic arbour length for neurons treated in FIG. 20A. In FIGS. 20B and 20C, violin plots represent the distribution of individual cells (n=15/treatment), while dots represent the averages per independent experiment (n=5/treatment). In this study primary cortical neurons (rats) were treated with volinanserin (0.1-1 μM), a selected 5-HT2A receptor antagonist, prior to the administration of the “polymorph HT compound” (1 μM 2-Br-LSD).

Setting [7] is: cAMP, ligand 5-HT, read-out: Functional Assay (agonist) Emax.

T3 sequence (P28223 whole entry): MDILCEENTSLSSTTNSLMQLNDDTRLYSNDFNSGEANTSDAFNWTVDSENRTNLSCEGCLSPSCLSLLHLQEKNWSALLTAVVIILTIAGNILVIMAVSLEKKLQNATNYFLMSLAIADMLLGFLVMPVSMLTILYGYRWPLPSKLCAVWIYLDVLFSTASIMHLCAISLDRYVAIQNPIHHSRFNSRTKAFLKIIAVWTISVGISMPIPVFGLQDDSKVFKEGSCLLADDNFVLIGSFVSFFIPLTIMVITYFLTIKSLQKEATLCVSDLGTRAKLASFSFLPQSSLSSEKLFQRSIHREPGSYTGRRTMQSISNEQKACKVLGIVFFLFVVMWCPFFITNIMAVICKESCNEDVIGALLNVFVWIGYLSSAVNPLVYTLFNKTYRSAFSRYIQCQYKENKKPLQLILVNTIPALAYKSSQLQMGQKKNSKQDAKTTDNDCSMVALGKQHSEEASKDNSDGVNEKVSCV
T1 sequence (P28223 whole entry, the tested form may be a part): as the sequence (P28223 whole entry) above
Sequence of 5-HT6 (P50406 whole entry): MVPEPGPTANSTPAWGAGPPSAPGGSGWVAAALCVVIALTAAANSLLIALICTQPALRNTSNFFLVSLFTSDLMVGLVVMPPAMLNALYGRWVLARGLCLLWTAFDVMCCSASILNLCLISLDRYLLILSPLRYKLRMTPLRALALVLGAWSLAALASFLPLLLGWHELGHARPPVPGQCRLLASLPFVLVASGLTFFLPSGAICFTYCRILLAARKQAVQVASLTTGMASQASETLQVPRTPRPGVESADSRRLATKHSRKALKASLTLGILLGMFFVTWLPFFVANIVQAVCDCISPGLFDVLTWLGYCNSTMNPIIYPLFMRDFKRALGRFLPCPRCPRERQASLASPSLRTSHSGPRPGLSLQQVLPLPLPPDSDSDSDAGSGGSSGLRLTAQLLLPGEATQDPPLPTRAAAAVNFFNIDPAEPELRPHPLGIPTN
T4 sequence (P41595 whole entry): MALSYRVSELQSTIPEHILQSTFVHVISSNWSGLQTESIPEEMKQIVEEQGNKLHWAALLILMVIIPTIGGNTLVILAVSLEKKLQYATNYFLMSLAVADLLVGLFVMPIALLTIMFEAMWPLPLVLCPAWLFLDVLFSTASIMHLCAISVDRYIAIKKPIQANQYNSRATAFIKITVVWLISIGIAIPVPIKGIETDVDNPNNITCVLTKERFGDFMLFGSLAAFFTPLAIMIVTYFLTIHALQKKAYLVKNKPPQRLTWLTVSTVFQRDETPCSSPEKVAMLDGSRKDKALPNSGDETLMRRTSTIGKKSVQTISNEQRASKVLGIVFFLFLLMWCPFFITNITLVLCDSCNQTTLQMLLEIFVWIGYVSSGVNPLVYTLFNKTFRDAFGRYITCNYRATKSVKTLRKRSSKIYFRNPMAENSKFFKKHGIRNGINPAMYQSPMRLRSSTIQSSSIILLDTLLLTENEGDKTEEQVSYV
T2 sequence (P28222 whole entry): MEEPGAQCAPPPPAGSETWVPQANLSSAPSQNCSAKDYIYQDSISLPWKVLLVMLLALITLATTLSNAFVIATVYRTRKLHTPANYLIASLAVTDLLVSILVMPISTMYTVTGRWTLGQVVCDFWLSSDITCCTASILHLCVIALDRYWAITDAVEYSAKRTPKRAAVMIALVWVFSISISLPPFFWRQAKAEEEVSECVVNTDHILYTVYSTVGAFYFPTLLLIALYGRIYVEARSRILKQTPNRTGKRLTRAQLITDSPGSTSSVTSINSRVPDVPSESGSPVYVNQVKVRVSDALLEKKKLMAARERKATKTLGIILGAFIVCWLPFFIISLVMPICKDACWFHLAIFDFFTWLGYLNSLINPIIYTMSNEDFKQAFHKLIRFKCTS
T5 sequence (P28566 whole entry): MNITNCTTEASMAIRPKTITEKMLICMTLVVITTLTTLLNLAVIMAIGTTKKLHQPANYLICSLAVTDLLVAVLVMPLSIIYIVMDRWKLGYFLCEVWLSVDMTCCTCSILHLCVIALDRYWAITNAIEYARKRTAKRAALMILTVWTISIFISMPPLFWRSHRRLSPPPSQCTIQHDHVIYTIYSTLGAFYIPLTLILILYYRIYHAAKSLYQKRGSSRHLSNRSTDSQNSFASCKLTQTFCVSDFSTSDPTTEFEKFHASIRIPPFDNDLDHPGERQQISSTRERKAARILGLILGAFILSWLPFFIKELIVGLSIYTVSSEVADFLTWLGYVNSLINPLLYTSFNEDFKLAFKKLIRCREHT

As for `NCCc1c[nH]c2ccc(O)cc12` [5-HT, serotonin], on 5-HT2A receptor [1], the “internalization of the 5-HT2A receptor (loss of surface expression)” value was “potent internalization”. The “β-Arrestin2 recruitment at the 5-HT2A receptor” value on 5-HT2A receptor [2] is on record as “strong recruiters of β-Arrestin2”.
For `COc1cc(CC(C)N)c(OC)cc1I` (stereo not drawn) [DOI, 2,5-Dimethoxy-4-iodoamphetamine], the “internalization of the 5-HT2A receptor (loss of surface expression)” value on 5-HT2A receptor [1] is given as “potent internalization”. Further, the “tolerance (tachyphylaxis) after repeated dosing, HTR count on DOI challenge” value in the data set with mice is “induced a significant degree of tachyphylaxis/tolerance”. In addition, the “β-Arrestin2 recruitment at the 5-HT2A receptor” value on 5-HT2A receptor [2] is “strong recruiters of β-Arrestin2”.
For `CCN(CC)C(=O)[C@H]1C=C2c3cccc4[nH]c(Br)c(c34)C[C@H]2N(C)C1` [E558, (5R, 8S)-2-Bromo-9,10-didehydro-N,N-diethyl-6-methylergoline-8-carboxamide], the EC50 in [3] is more than 10000 nM; at 5-HT6 it was 0.099 µM; in data set [4] it was 0.2 µM; in [5], more than 10 µM; on 5-HT1E it was more than 10 µM; on 5-HT1F, 3.12 µM. The Emax stood at 71% at 5-HT6 (setting [7]); 55% in data set [4] (HEK293, IP1, ligand 5-HT, read-out: Functional Assay (agonist) Emax); 66.9% at 5-HT1F (setting [7]). The IC50 in [4] and in [5] was more than 10 µM each time.
Regarding `CCN(CC)C(=O)[C@@H]1C=C2c3cccc4[nH]c(Br)c(c34)C[C@H]2N(C)C1` [E560, (5R, 8R)-2-Bromo-9,10-didehydro-N,N-diethyl-6-methylergoline-8-carboxamide hemi-L-tartrate], the “DVS (0-90-0 2 cycles) max water absorbed” value in the data set “DVS hygroscopicity” (90% RH exposure, ~24 hr run time, listed as L-Tartrate) is “absorbed mad 12%”. The “DVS (hold at 75% RH) mass increase” value is 6.3% mass increase in “DVS hygroscopicity” (listed as L-Tartrate) and “about 6.3%” in the data set “DVS hygroscopicity” (listed as L-tartrate salt).
For `COc1cccc([C@H](O)C2CCN(CCc3ccc(F)cc3)CC2)c1OC` [volinanserin], the “effect of volinanserin pre-treatment on E559 polymorph induced decrease in immobility in FST” value in the data set on stress-naïve mice (volinanserin 0.125 mg/kg IP 1 hour before E559 polymorph 1 mg/kg IP, female and male mice) is “blocked the decrease in immobility”. The “locomotion in the OFT” value in the data set with stress-naïve mice (volinanserin alone or with E559 polymorph, female or male mice) was “did not affect locomotion in the OFT in female or male mice”. In data set [6] (E559 polymorph 1 μM), the “effect of volinanserin on E559 polymorph induced increase in total dendrite length” value was “blocked the increase in total dendrite length”. In addition, in data set [6] (every volinanserin concentration tested), the “effect of volinanserin pre-treatment on E559 polymorph (1 μM) induced dendritic arbor complexity (Sholl intersections)” value is listed as “blocked the effect”. In data set [6] (volinanserin followed by vehicle), the “dendritic arbor complexity, volinanserin alone” value is “did not change any parameters linked to dendritic arbor complexity”.

In general, EC50 refers to the concentration that produces a half-maximal response. Read a low EC50 as higher potency in that assay. In general, Emax refers to the greatest response seen or fitted, relative to the assay's reference. As a reminder, the IC50 is the concentration needed to halve the response being measured.

(Values after patent publication US12331051B2 (priority 2021, dated 2025).)
